# Source: PubChem BioAssay AID212 (DTP/NCI, 2004)
# Several values for one entry are separate records, joined by “and”; a condition that tells them apart may be missing. Equal entries are not always repeated. Inconclusive results are not listed.
# Test system: BDF1 mice, colon carcinoma 38 sc, T/C %
# Assay: NCI In Vivo Anticancer Drug Screen. Data for tumor model Colon Carcinoma 38 (subcutaneous) in B6D2F1 (BDF1) mice
# Conditions: endpoint: median tumor weight (est.), higher = larger tumour
# Procedure, shortened: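 T/C readout: treated group (T) measurement over vehicle control group (C) measurement. Endpoint is survival or tumor size in mice bearing a transplanted tumor.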
# [1] = dose: 12.5 mg/kg/injection, schedule: Q07DX002 (ip), vehicle: saline with Tween-80
# [2] = dose: 25.0 mg/kg/injection, schedule: Q07DX002 (ip), vehicle: saline with Tween-80
# [3] = dose: 100.0 mg/kg/injection, schedule: Q07DX002 (ip), vehicle: saline with Tween-80
smiles,measurement,setting,value
NC1=NCN(C2OC(CO)C(O)C2O)C(=O)N1 (stereo not given),T/C,"dose: 25.0 mg/kg/injection, schedule: Q07DX003 (ip), vehicle: saline",57 % of control and 71 % of control
same,T/C,"dose: 50.0 mg/kg/injection, schedule: Q07DX003 (ip), vehicle: saline",60 % of control and 79 % of control
same,T/C,"dose: 100.0 mg/kg/injection, schedule: Q07DX003 (ip), vehicle: saline",54 % of control and 75 % of control
same,T/C,"dose: 400.0 mg/kg/injection, schedule: Q07DX003 (ip), vehicle: saline",57 % of control and 58 % of control
same,T/C,"dose: 600.0 mg/kg/injection, schedule: Q07DX003 (ip), vehicle: saline",94 % of control
same,T/C,"dose: 1000.0 mg/kg/injection, schedule: Q07DX003 (ip), vehicle: saline",79 % of control
same,T/C,"dose: 1200.0 mg/kg/injection, schedule: Q07DX003 (ip), vehicle: saline",63 % of control
same,T/C,"dose: 1400.0 mg/kg/injection, schedule: Q07DX003 (ip), vehicle: saline",84 % of control
same,T/C,"dose: 1600.0 mg/kg/injection, schedule: Q07DX003 (ip), vehicle: saline",47 % of control
COc1cc([C@@H]2c3cc4c(cc3[C@@H](OC3OC5COC(C)OC5C(O)C3O)[C@H]3COC(=O)[C@H]23)OCO4)cc(OC)c1O (stereo not given in full),T/C,"dose: 16.0 mg/kg/injection, schedule: Q07DX003 (ip), vehicle: clinical formulation",68 % of control
same,T/C,"dose: 32.0 mg/kg/injection, schedule: Q07DX003 (ip), vehicle: clinical formulation",83 % of control
same,T/C,"dose: 64.0 mg/kg/injection, schedule: Q07DX003 (ip), vehicle: clinical formulation",27 % of control
C/C(=N/NC(N)=S)c1ccc2ccccc2c1,T/C,"dose: 6.25 mg/kg/injection, schedule: Q07DX002 (ip), vehicle: saline with Tween-80",111 % of control
same,T/C,[1],63 % of control
same,T/C,[2],70 % of control and 80 % of control
same,T/C,[3],31 % of control and 48 % of control
c1ccc2c(NCCCCCCCCNc3c4ccccc4nc4ccccc34)c3ccccc3nc2c1,T/C,"dose: 5.0 mg/kg/injection, schedule: Q07DX002 (ip), vehicle: Klucel (hydroxypropylcellulose) (HPC)",109 % of control and 101 % of control
same,T/C,"dose: 10.0 mg/kg/injection, schedule: Q07DX002 (ip), vehicle: Klucel (hydroxypropylcellulose) (HPC)",78 % of control and 93 % of control
same,T/C,"dose: 20.0 mg/kg/injection, schedule: Q07DX002 (ip), vehicle: Klucel (hydroxypropylcellulose) (HPC)",75 % of control and 77 % of control
same,T/C,"dose: 40.0 mg/kg/injection, schedule: Q07DX002 (ip), vehicle: Klucel (hydroxypropylcellulose) (HPC)",72 % of control and 87 % of control
same,T/C,"dose: 80.0 mg/kg/injection, schedule: Q07DX002 (ip), vehicle: Klucel (hydroxypropylcellulose) (HPC)",79 % of control and 100 % of control
O=C(NO)c1ccccc1,T/C,"dose: 25.0 mg/kg/injection, schedule: Q07DX002 (ip), vehicle: saline",70 % of control
same,T/C,"dose: 25.0 mg/kg/injection, schedule: Q07DX002 (ip), vehicle: suspension in saline",168 % of control
same,T/C,"dose: 50.0 mg/kg/injection, schedule: Q07DX002 (ip), vehicle: saline",83 % of control
same,T/C,"dose: 100.0 mg/kg/injection, schedule: Q07DX002 (ip), vehicle: saline",63 % of control
same,T/C,"dose: 200.0 mg/kg/injection, schedule: Q07DX002 (ip), vehicle: saline",80 % of control
same,T/C,"dose: 200.0 mg/kg/injection, schedule: Q07DX002 (ip), vehicle: suspension in saline",165 % of control
same,T/C,"dose: 400.0 mg/kg/injection, schedule: Q07DX002 (ip), vehicle: saline",70 % of control
same,T/C,"dose: 400.0 mg/kg/injection, schedule: Q07DX002 (ip), vehicle: suspension in saline",103 % of control
same,T/C,"dose: 800.0 mg/kg/injection, schedule: Q07DX002 (ip), vehicle: saline",89 % of control
same,T/C,"dose: 800.0 mg/kg/injection, schedule: Q07DX002 (ip), vehicle: suspension in saline",105 % of control
CC[n+]1c(-c2ccccc2)c2cc(N)ccc2c2ccc(N)cc21,T/C,"dose: 2.5 mg/kg/injection, schedule: Q07DX002 (ip), vehicle: saline",99 % of control
same,T/C,"dose: 20.0 mg/kg/injection, schedule: Q07DX002 (ip), vehicle: saline",118 % of control and 103 % of control
C=C(C)C1C2CC3(C)C4(CO4)C4OC4C3(O)C1C(=O)O2 (stereo not given),T/C,"dose: 0.38 mg/kg/injection, schedule: Q07DX002 (ip), vehicle: Klucel (hydroxypropylcellulose) (HPC)",81 % of control
same,T/C,"dose: 0.75 mg/kg/injection, schedule: Q07DX002 (ip), vehicle: Klucel (hydroxypropylcellulose) (HPC)",104 % of control
same,T/C,"dose: 1.5 mg/kg/injection, schedule: Q07DX002 (ip), vehicle: Klucel (hydroxypropylcellulose) (HPC)",112 % of control
C1=CCOCOC1,T/C,[1],77 % of control
same,T/C,[2],94 % of control and 104 % of control
same,T/C,[3],72 % of control
same,T/C,"dose: 200.0 mg/kg/injection, schedule: Q07DX002 (ip), vehicle: saline with Tween-80",58 % of control
